These are literature values, as cited in article PMC6256996, “Natural products as new antimitotic compounds for anticancer drug development” (Clinics, 2018).

As a reminder, the IC50 is the point on the concentration scale where inhibition reaches its midpoint.

For one series, the system named is K562 cells. Further details: method as in PMID 15787450, doi:10.1007/s11418-006-0118-3. The following applies: 48-hour incubation.
The subject of series [1] is HL-60 cells. Further details: method as in PMID 16316665. The following applies: 3 hours.
In series [2] the test system is HL-60 cells. Further details: method as in PMID 16316665.
Series [3] deals with HL-60 cells. Further details: method as in PMID 16316665. The settings on record: lowest treatment concentration (3.97 μmol.L^-1).
The test system of another series is HL60. Further details: method as in doi:10.2174/1570180814666171012162557. The settings on record: for SI PBMC/HL-60: cytotoxic selectivity index, IC50 for PBMCs/cancer cell line.
The test system of a further series is OVCAR-8. Also on record: method as in doi:10.2174/1570180814666171012162557. The settings on record: for SI PBMC/OVCAR-8: cytotoxic selectivity index, IC50 for PBMCs/cancer cell line.
For the next series, the system named is HCT-8. Also on record: method as in doi:10.2174/1570180814666171012162557. The following applies: for SI PBMC/HCT-8: cytotoxic selectivity index, IC50 for PBMCs/cancer cell line.
Series [4] deals with peripheral blood mononuclear cells (PBMCs). Further details: method as in doi:10.2174/1570180814666171012162557. The settings on record: 72h of treatment; mean±SEM.

Where two headings read alike, the source gives them in different places.

`COc1ccc2c(c1)O[C@@H]1c3cc(OC)c(OC)cc3OC[C@H]21` [(+)2,3,9-trimethoxypterocarpan, (+)2,3,9-Trimethoxypterocarpan]: in the series on K562 cells, the “IC50, proliferation of K562 cells” value was 0.8 µg/mL. For the same compound, the “Inhibition of BrdU incorporation during the S phase” value was 37% in the series with HL-60 cells [1] (3.97 μmol.L^-1), 38% in the series on HL-60 cells [1] (7.95 μmol.L^-1) and 56% in the series on HL-60 cells [1] (15.9 μmol.L^-1). The “Cells with DNA fragmentation” value in the series on HL-60 cells [2] (HL-60 cells permeabilized with Triton X-100, 24-hour treatment, 3.97, 7.95 and 15.9 μmol.L^-1) is given as about 50%. For the same compound, the “Cell cycle arrest (DNA content)” value in the series on HL-60 cells [2] (HL-60 cells, 15.9 μmol.L^-1) is on record as “arrested at the G2/M phase transition”. For the same compound, the Membrane damage entry with HL-60 cells [2] (HL-60 cells, 24-hour treatment, 3.97, 7.95 and 15.9 μmol.L^-1) was “no significant membrane damage”. The “HL-60 cell population with depolarized mitochondria” value with HL-60 cells [3] is 38.6%.

Take `COc1ccc(/C=C\c2cc(OC)c(OC)c(OC)c2)cc1O` [CA-4, combretastatin A-4, reference compound]: the “SI PBMC/HL-60” value with HL60 (72h of treatment) is recorded as 1.45. For the same compound, the “SI PBMC/OVCAR-8” value with OVCAR-8 (72h of treatment) is 6.40. The “SI PBMC/HCT-8” value in the series with HCT-8 (72h of treatment) is recorded as 0.60. Besides, the half-inhibitory concentration (IC50) in series [4] is 3.2 nM.

`COc1cc(C(=O)N/N=C/c2ccccc2)cc(OC)c1OC` [LASSBio-1586]: the IC50 with HL60 (72h of treatment, mean±SEM, read-out: HL60 (mean IC50±SEM)) is 290 ± 1.2 nM; in the series on OVCAR-8 (72h of treatment, mean±SEM, read-out: OVCAR-8 (mean IC50±SEM)), 290 ± 40 nM; in the series with HCT-8 (72h of treatment, mean±SEM, read-out: HCT-8 (mean IC50±SEM)), 450 ± 81 nM; in series [4], 1340 ± 65 nM. Besides, the “SI PBMC/HL-60” value in the series with HL60 (72h of treatment) is 4.60. For the same compound, the “SI PBMC/OVCAR-8” value in the series with OVCAR-8 (72h of treatment) is listed as 4.60. In the series on HCT-8 (72h of treatment), the “SI PBMC/HCT-8” value is given as 3.0.

On to `COc1cc(C(=O)N/N=C/c2cc3ccccc3s2)cc(OC)c1OC` [LASSBio-1920], for which the “SI PBMC/HL-60” value in the series with HL60 (72h of treatment) is listed as 333.30. The half-inhibitory concentration (IC50) in the series with HL60 (read-out: IC50 in HL-60 tumor cell line) was 0.3 nM; in the series with OVCAR-8 (read-out: IC50 in OVCAR-8 tumor cell line) it was 9 nM; in the series with HCT-8 (read-out: IC50 in HCT-8 tumor cell line) it was 5 nM; in series [4] it was 100 ± 11 nM. Besides, in the series on OVCAR-8 (72h of treatment), the “SI PBMC/OVCAR-8” value is on record as 11.11. In addition, the “SI PBMC/HCT-8” value in the series with HCT-8 (72h of treatment) is 20.0.
